Reference: US8765814B2, “N-hydroxyformamide derivative and medicament containing same” (Kaken Pharmaceutical Co., Ltd., priority 2010, dated 2014)
pIC50: −log10 of the molar value.

What was measured:
ADAM10 = molecular target: T1, ADAM10 (Homo sapiens, UniProt O14672); test: ADAM10 inhibition test; assay type: biochemical; conditions: recombinant ADAM10 (cDNA from THP-1 cells), fluorescent synthetic substrate Nma-[…]Dnp-D-Arg-NH2, 25° C., 5 hours; read-out: IC50 Value (50% inhibitory concentration against ADAM10)
T1 construct: made in house; host or cells: mammal cells or insect cells (not specified which)
T1 sequence (O14672 214-748): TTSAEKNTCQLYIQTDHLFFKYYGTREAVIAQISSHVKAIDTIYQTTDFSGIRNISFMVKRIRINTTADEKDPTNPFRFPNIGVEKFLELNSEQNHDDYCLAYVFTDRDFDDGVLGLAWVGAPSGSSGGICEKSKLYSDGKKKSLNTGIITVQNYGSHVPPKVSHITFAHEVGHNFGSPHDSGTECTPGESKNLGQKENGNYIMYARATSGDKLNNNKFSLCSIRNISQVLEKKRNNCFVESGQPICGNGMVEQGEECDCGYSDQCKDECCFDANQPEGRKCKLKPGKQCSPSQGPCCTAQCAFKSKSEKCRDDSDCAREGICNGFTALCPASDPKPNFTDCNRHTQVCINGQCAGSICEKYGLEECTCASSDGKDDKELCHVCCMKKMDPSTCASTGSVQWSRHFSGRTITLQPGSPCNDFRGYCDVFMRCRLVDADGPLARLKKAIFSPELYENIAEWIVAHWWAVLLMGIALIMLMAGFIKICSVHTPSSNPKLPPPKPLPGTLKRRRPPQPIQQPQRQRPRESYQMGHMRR
Excerpt: The cDNA of ADAM10 was obtained from THP-1 cells in the usual way, and this was inserted into an expression vector, and thereafter the vector was transformed in mammal cells or insect cells to thereby make the cells express ADAM10. In the ADAM10 inhibition test, ADAM10 obtained in the manner as above was used as an enzyme, and a fluorescent synthetic substrate Nma (N-methylanthranylic acid)-[…]Dnp (dinitrophenyl)-D-Arg-NH2 was used as the substrate. Using these in the test, the ADAM10 activity in the presence or absence of the test substance was measured. The method of ADAM10 inhibition test is mentioned below.
Concretely, 90 μl of an enzyme liquid prepared using an assay buffer A (50 mM tris-hydrochloride buffer (pH 7.5) containing 200 mM sodium chloride, 5 mM calcium chloride, 10 μM zinc sulfate, 0.004% sodium azide, and 2 mg/mL bovine serum albumin), and 90 μL a fluorescent synthetic substrate as prepared to be 20 μM in an assay buffer B (50 mM tris-hydrochloride buffer (pH 7.5) containing 200 mM sodium chloride, 5 mM calcium chloride, 10 μM zinc sulfate, 0.004% sodium azide, and 0.05% PLURONIC F-68) were mixed, and reacted at 25° C. for 5 hours. Subsequently, using a fluorescent intensity meter (Fluoroskan Ascent), the reaction liquid was analyzed at an excitation wavelength of 355 nm and at a measuring wavelength of 460 nm to determine the enzymatic activity therein.
(§1) From the enzymatic activity in the presence or absence of the test compound, the inhibitory percentage was determined, and the 50% inhibitory concentration (IC50) of the test compound was calculated.
The 50% inhibitory concentration against ADAM10 of the N-hydroxyformamide derivative of the invention, as determined in this test, was shown in Table 2.

ADAM17 = molecular target: T2, ADAM17 (Homo sapiens, UniProt P78536); test: ADAM17 inhibition test; assay type: biochemical; conditions: recombinant ADAM17 (cDNA from THP-1 cells), fluorescent synthetic substrate Nma-[…]Dnp-D-Arg-NH2, 37° C., 1.5 hours; read-out: IC50 Value (50% inhibitory concentration against ADAM17)
T2 construct: made in house; host or cells: mammal cells or insect cells (not specified which)
T2 sequence (P78536 215-824): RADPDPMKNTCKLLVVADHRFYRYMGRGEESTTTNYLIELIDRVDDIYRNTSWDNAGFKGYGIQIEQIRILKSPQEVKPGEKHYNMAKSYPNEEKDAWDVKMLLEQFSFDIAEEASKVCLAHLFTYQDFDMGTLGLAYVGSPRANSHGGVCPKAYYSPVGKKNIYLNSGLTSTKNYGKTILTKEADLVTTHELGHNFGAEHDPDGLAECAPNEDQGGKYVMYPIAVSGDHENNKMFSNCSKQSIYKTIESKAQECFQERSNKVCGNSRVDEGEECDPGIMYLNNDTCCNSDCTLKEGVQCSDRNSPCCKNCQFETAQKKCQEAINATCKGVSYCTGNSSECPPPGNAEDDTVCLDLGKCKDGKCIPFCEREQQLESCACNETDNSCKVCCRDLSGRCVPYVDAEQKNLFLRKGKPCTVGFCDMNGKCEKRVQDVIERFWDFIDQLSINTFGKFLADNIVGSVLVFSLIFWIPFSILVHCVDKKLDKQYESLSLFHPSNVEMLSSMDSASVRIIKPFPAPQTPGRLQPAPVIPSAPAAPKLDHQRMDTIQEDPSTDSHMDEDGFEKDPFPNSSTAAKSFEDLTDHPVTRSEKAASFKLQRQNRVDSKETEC
Excerpt: The nucleotide sequence of ADAM17 was reported by Moss et al. (Moss, M. L. et al., Nature 1997, 385, 733-736). Accordingly, the cDNA was obtained from THP-1 cells of a human monocytic cell line in the usual way, and this was inserted into an expression vector, and thereafter the vector was transformed in mammal cells or insect cells to thereby make the cells express ADAM17.
In the ADAM17 inhibition test, ADAM17 obtained in the manner as above was used as an enzyme, and a fluorescent synthetic substrate Nma (N-methylanthranylic acid)-[…]Dnp (dinitrophenyl)-D-Arg-NH2 containing the ADAM17-cleaved sequence of a membrane-bound TNF was used as the substrate. Using these in the test, the ADAM17 activity in the presence or absence of the test substance was measured. The method of ADAM17 inhibition test is mentioned below.
Concretely, 90 μl of an enzyme liquid as prepared to have 14 units in an assay buffer A (50 mM tris-hydrochloride buffer (pH 7.5) containing 200 mM sodium chloride, 5 mM calcium chloride, 10 μM zinc sulfate, 0.004% sodium azide, and 2 mg/mL bovine serum albumin) (the amount of enzyme capable of decomposing 1 pmol of substrate at 25° C. for 1 minute was defined to be 1 unit), and 90 μL a fluorescent synthetic substrate as prepared to be 20 μM in an assay buffer B (50 mM tris-hydrochloride buffer (pH 7.5) containing 200 mM sodium chloride, 5 mM calcium chloride, 10 μM zinc sulfate, 0.004% sodium azide, and 0.05% PLURONIC F-68) were mixed, and reacted at 37° C. for 1.5 hours. Subsequently, using a fluorescent intensity meter (Fluoroskan Ascent), the reaction liquid was analyzed at an excitation wavelength of 355 nm and at a measuring wavelength of 460 nm to determine the enzymatic activity therein.
as §1
The 50% inhibitory concentration against ADAM17 of the N-hydroxyformamide derivative of the invention, as determined in this test, was shown in Table 1.

Row | pIC50 (ADAM10) | pIC50 (ADAM17) | Compound
1 | 7.40 | 8.24 | CC#CCOc1ccc(S(=O)(=O)CC(c2ccc(CNS(C)(=O)=O)cc2)N(O)C=O)cc1 (centres unmarked) [Compound I-4, N-{4-[2-(4-But-2-ynyloxybenzenesulfonyl)-1-(formylhydroxyamino)ethyl]benzyl}methanesulfonamide]
2 | 7.15 | 7.74 | CC#CCOc1ccc(S(=O)(=O)CC(c2ccc(CN3CCOCC3)cc2)N(O)C=O)cc1 (centres unmarked) [Compound I-6, N-[2-(4-But-2-ynyloxybenzenesulfonyl)-1-(4-morpholin-4-ylmethylphenyl)ethyl]-N-hydroxyformamide]
3 | 7.05 | 7.26 | CCC#CCOc1ccc(S(=O)(=O)CC(c2ccc(CN3CCOCC3)cc2)N(O)C=O)cc1 (centres unmarked) [Compound I-7, N-Hydroxy-N-[1-(4-morpholin-4-ylmethylphenyl)-2-(4-pent-2-ynyloxybenzenesulfonyl)ethyl]formamide]
4 | 7.89 | 8.28 | CC#CCOc1ccc(S(=O)(=O)CC(c2ccc(CN(CC)CC)cc2)N(O)C=O)cc1 (centres unmarked) [Compound I-1, N-[2-(4-But-2-ynyloxybenzenesulfonyl)-1-(4-diethylaminomethylphenyl)ethyl]-N-hydroxyformamide]
5 | 7.66 | 8.14 | CC#CCOc1ccc(S(=O)(=O)CC(c2ccc(CN(C)C)cc2)N(O)C=O)cc1 (centres unmarked) [Compound I-2, N-[2-(4-But-2-ynyloxybenzenesulfonyl)-1-(4-dimethylaminomethylphenyl)ethyl]-N-hydroxyformamide]
6 | 7.72 | 8.14 | CC#CCOc1ccc(S(=O)(=O)CC(c2ccc(CNC(=O)c3ccccc3)cc2)N(O)C=O)cc1 (centres unmarked) [Compound I-5, N-{4-[2-(4-But-2-ynyloxybenzenesulfonyl)-1-(formylhydroxyamino)ethyl]benzyl}benzamide]
7 | 7.38 | 8.09 | CC#CCOc1ccc(S(=O)(=O)CC(c2ccc(CNC(=O)COC)cc2)N(O)C=O)cc1 (centres unmarked) [Compound I-3, N-{4-[2-(4-But-2-ynyloxybenzenesulfonyl)-1-(formylhydroxyamino)ethyl]benzyl}-2-methoxyacetamide]
